{"source": "patent US20100068698A1", "about": "“PRODUCTION OF […] C VIRUS PARTICLES IN CELL CULTURE” (priority 2008, published 2010)", "tested_on": "infectious H77S (GT 1a virus)", "test": "HCV infectious virus EC50 determination (HCV RNA by quantitative RT-PCR in infected Rof-0c cells)", "format": "cell-based, Hepatitis C virus genotype 1a", "conditions": "Hepatitis C virus, GT1A, 72 h, 96-well plate, virus stock grown in human serum, three days post-infection, read-out: potency against infectious H77S (EC50, 50% reduction in HCV RNA)", "protocol": "FIG. 6. Potency of an NS5B inhibitor and HCV entry inhibitor against the GT 1a infectious virus. Rof-0c cells were infected with either H77S or the chimera H77S RO-51-5B. At the time of infection, the cells were treated with a serial dilution of either the NS5B inhibitor HCV-796 or the HCV entry inhibitor JS81. After three days, the intracellular RNA was purified and used to determine the amount of HCV RNA.\nThe presence of HCV RNA was examined after purification of total cellular RNA using the PerfectPure RNA 96 Cell Kit (5 Prime) according to the manufacturer's instructions. To quantitate the amount of HCV RNA, cDNA was amplified using either the Taqman Universal PCR mix (Applied Biosystems) or the TaqMan EZ RT-PCR kit (Applied Biosystems) with a set of primers and probe complementary to a region within the 5′ untranslated region (UTR). The primer and probe sequences are: (HCV 20F) […] (SEQ ID NO:4); (HCV 114R) […] (SEQ ID NO:5); (HCV P43) FAM-[…]-TAMRA (SEQ ID NO:6).\nThe sensitivity of infectious HCV to antivirals was determined using the genotype 1a strains H77S or H77S RO-51-5B. […] Three days post-infection, the HCV RNA was quantified as described above. […]\nPotency of HCV inhibitors against GT1a virus. […] The HCV stocks were analyzed to determine if they would be sufficient to measure the potency of HCV inhibitors. […]"}
{"smiles": "CNC(=O)c1c(-c2ccc(F)cc2)oc2cc(N(CCO)S(C)(=O)=O)c(C3CC3)cc12", "note": "[HCV-796]", "values": [{"measurement": "EC50", "value": "32 ± 4", "unit": "nM"}]}
